Several values for one entry are separate records, joined by “and”; a condition that tells them apart may be missing. Equal entries are not always repeated. Where two headings read alike, the source gives them in different places.
How the values were obtained:
PNKP [1] = biological target: T1, PNKP (Homo sapiens (Human), UniProt Q96T60); experiment: Universal molecular beacon (U-MB) fluorescence assay of PNKP phosphatase activity, IC50; type: biochemical
Protocol: (§1) We chose to first rate and compare the analogues using a single-point measurement at 20 μM concentration. […] Only the top-rated analogues were further evaluated with an IC50 and a dissociation constant (Kd) determination.

[2] = tested on: human A549 lung carcinoma cells; conditions: non-toxic doses; cited from earlier work
[3] = concentrations of 5-10 μM; cited from earlier work
[4] = tested on: MDA-MB-231 breast cancer cells; conditions: non-toxic doses; cited from earlier work
PNKP [5] = biological target: T1, PNKP; experiment: Binding affinity (Kd) by steady-state fluorescence spectroscopy, protein tryptophan fluorescence quenching
Protocol: as §1
Freschauf, G. K., Mani, R. S., Mereniuk, T. R., Fanta, M., Virgen, C. A., Dianov, G. L., Grassot, J. M., Hall, D. G., and Weinfeld, M. Mechanism of action of an imido-piperidine inhibitor of human polynucleotide kinase/phosphatase.

PNKP [6] = biological target: T1, PNKP; conditions: intrinsic (tryptophan) fluorescence quenching titration, earlier publication; read-out: dissociation constant (Kd); cited from earlier work
[7] = tested on: cells in which PNKP expression was down-regulated by shRNA; conditions: cited from earlier work
[8] = tested on: limited panel of phosphatase enzymes; conditions: cited from earlier work
myeloid leukemia cells = conditions: cited from earlier work
[9] = tested on: radioresistant prostate cancer cells; conditions: cited from earlier work
murine PNKP = murine PNKP (Mus musculus (Mouse), UniProt Q9JLV6); conditions: compared with human PNKP; cited from earlier work
Sequence of murine PNKP (Q9JLV6 whole entry): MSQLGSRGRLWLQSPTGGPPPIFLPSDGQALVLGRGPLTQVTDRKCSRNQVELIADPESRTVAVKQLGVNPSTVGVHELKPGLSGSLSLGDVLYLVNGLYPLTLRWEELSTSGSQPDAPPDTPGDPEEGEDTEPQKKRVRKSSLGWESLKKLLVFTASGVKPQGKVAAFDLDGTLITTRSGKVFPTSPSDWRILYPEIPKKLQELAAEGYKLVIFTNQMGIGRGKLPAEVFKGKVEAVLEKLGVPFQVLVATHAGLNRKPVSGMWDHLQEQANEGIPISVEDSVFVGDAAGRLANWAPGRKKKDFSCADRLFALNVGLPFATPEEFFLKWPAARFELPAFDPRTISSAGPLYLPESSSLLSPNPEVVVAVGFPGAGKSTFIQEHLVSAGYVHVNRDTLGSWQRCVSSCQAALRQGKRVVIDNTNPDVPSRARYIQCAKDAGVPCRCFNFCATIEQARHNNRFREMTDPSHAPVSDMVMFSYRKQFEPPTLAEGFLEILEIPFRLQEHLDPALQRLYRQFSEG

HCT116 cells [10] = experiment: MTS cell proliferation assay; type: cell-based, human; conditions: for usable concentration in clonogenic survival assays (not affecting cell growth): 72 h MTS
Protocol: Free inhibitor was dissolved in DMSO in a way to keep the final concentration of DMSO<1%. After 72 h, 11 μL of the pre-mixed optimized dye solution (tetrazolium dye) was added to each well and cells were incubated for 4 more hours at 37° C. The absorbance recorded at 490 nm on a FLUOstar Optima® plate reader (BMG Labtech Inc., Durham, N.C.) was used as a representation of the relative number of metabolically active cells in the culture.

HCT116 cells [11] = experiment: Clonogenic survival assay, radio/chemosensitization; type: cell-based, human
Protocol: (§2) Cells, seeded in 60-mm dishes 24 hours in advance, were treated with PNKP inhibitors for 9-14 consecutive days at nontoxic concentrations. […] Colonies consisting of 50 cells or more were counted using an automated colony counter (Oxford Optronix, Abingdon, UK).

Solubility = type: physicochemical
HCT116 PTEN+/+ cells = experiment: Clonogenic survival assay, PTEN wild-type control cells; type: cell-based; conditions: encapsulated, 9-14 days
Protocol: (§3) Cells, seeded in 60-mm dishes 24 hours in advance, were treated with PNKP inhibitors for 9-14 consecutive days at nontoxic concentrations. Colonies were then stained with a crystal violet (Sigma, Oakville, ON, CA) stain containing 25% methanol for 30 min, after which the plates were washed in warm water and left to dry overnight. Colonies consisting of 50 cells or more were counted using an automated colony counter (Oxford Optronix, Abingdon, UK).
(§4) To investigate whether the new encapsulated PNKP 3′-phosphatase inhibitors could induce a synthetic lethal response in PTEN-deficient cells, we performed clonogenic survival assays with both HCT116 PTEN+/+ and HCT116 PTEN−/− cells. […] However, the disruption of PNKP (chemically by inhibitors) or PTEN (genetically) individually was not lethal. These findings confirm our previous observation that a synthetic lethal relationship exists between PTEN and PNKP.

HCT116 PTEN−/− cells = experiment: Clonogenic survival assay, synthetic lethality; type: cell-based, human
Protocol: as §3, §4

[12] = tested on: HCT116 PNKP-knock out cells; experiment: Clonogenic survival assay, radio/chemosensitization in PNKP knock-out cells; type: cell-based, human; conditions: free or encapsulated
Protocol: as §2

[13] = tested on: HCT116 wild type (wt) and PTEN knockout colorectal cells xenograft tumours; experiment: Subcutaneous xenograft tumour response; type: in vivo; conditions: NIHIII mice, intravenous, three times 2 days apart, free or encapsulated
Protocol: In FIG. 32, we have injected 500,000 HCT116 colorectal cancer cells subcutaneously in the right flank of NIHIII mice. […] Tumour volume was then calculated from the measurement of tumour dimensions and used to plot change in tumour volume over time.

[14] = In vitro release of PNKP inhibitors by dialysis method; type: physicochemical
Protocol: The in vitro release of encapsulated PNKP inhibitors was studied using a dialysis method. Each dialysis bag (Spectrapor dialysis tubing, MWCO 3.5 kDa, Spectrum Laboratories, Rancho Dominguez, Calif.), containing 2 mL of the micellar formulation or free drug dissolved in acetone, was placed into 300 mL of distilled water maintained at 37° C. in a shaking water bath (65 rpm, Julabo SW 22 shaking water bath, Seelbach, Germany). At selected time intervals, aliquots of 200 μL from the inside of the dialysis bag were collected. The amount of PNKP inhibitor was analyzed using a Varian Prostar 210 HPLC system. Reversed phase chromatography was carried out with a Microsorb-MV 5 μm C18-100 Å column (4.6 mm×250 mm) with 20 μL of sample injected and eluted under isocratic conditions with a solution of 0.1% trifluroacetic acid/acetonitrile (1:1 v/v) at a flow rate of 1.0 mL/min at room temperature.

EGFR = EGFR (Homo sapiens (Human), UniProt P00533); conditions: read-out: dissociation constant; cited from earlier work

In the case of `CCCCCCCCCC[C@@H](O)[C@H]1C=CC2C(=O)N(c3ccccc3)C(=O)[C@H]2N1Nc1ccc([N+](=O)[O-])cc1` (stereo in doubt) [Compound A12B4C3, 2-(1-hydroxyundecyl)-1-(4-nitrophenylamino)-6-phenyl-6,7a-dihydro-1H-pyrrolo[3,4-b]pyridine-5,7(2H, 4aH)-dione], the IC50 (PNKP [1]) is listed as 14000 nM, the “sensitization to γ-radiation and camptothecin” value [2] is listed as “able to sensitize” and the cytotoxicity [3] is listed as “low cytotoxicity”. The “sensitization to γ-radiation and camptothecin” value [4] was “able to sensitize”, the Kd (PNKP [5]) was 370 nM and the Kd (PNKP [6]) was 340 nM. The “sensitization of PNKP-down-regulated cells” value [7] was “failed to sensitize”, the specificity [8] was “specificity for PNKP” and the “sensitization to Auger electron-emitting radioimmunoconjugate” value (myeloid leukemia cells) was “sensitizes”. For the same compound, the “sensitization to irradiation by carbon ions” value [9] was “sensitizes” and the “inhibition of murine PNKP” value (murine PNKP) was “only slightly reduced efficacy”.
For `CCCCCCCCCC[C@@H](O)[C@@H]1C=CC2C(=O)N(c3ccc(N4CCNCC4)cc3)C(=O)[C@H]2N1Nc1ccc([N+](=O)[O-])cc1` (some centres unmarked) [Compound A12B4C50], the “usable concentration in clonogenic survival assays (not affecting cell growth)” value (HCT116 cells [10]) was no more than 5 µM, the “concentrations at which cell growth was affected” value (HCT116 cells [10]; free and encapsulated, 72 h) was greater than 5 µM and the “level at which encapsulated inhibitor sensitized HCT116 cells to radiation and irinotecan” value (HCT116 cells [11]) was 4 µM. The water solubility (Solubility) was “low water solubility”, the “toxicity to HCT116 PTEN+/+ cells” value (HCT116 PTEN+/+ cells) was “showed toxicity” and the “level at which encapsulated inhibitor induced synthetic lethality” value (HCT116 PTEN−/− cells) was 4 µM.
For `O=C1C2C=C[C@H]([C@H](O)c3ccc(Br)cc3)N(Nc3ccc([N+](=O)[O-])cc3)[C@@H]2C(=O)N1c1ccccc1` (some centres unmarked) [Compound A44B4C3], the “solubility compared with A12B4C3” value (Solubility) was “more soluble”.
For `COc1ccccc1[C@@H](O)[C@H]1C=CC2C(=O)N(c3ccccc3)C(=O)[C@H]2N1Nc1ccc([N+](=O)[O-])cc1` (some centres unmarked) [Compound A83B4C3], the “solubility compared with A12B4C3” value (Solubility) was “more soluble”.
In the case of `COc1ccccc1C(O)C1C=CC2C(=O)N(Cc3cccc4ccccc34)C(=O)C2N1Nc1ccc([N+](=O)[O-])cc1` (centres unmarked) [Compound A83B4C63, 2-[hydroxy(2-methoxyphenyl)methyl]-6-(naphthalen-1-ylmethyl)-1-[(4-nitrophenyl)amino]2H,4aH,7aH-pyrrolo[3,4-b]pyridine-5,7-dione], the “sensitization of HCT116 PNKP-knock out cells to radiation or irinotecan” value [12] is reported as “failed to further sensitize”, the “tumour volume response, PTEN positive versus PTEN negative tumour model” value [13] is reported as “not as effective in the PTEN positive tumour model as it is in the PTEN negative tumour model” and the “drug released from the dialysis bag” value ([14]; free drug, within 6 h, 37° C.) is reported as 59.4%. The drug released ([14]; from PEO-b-PBCL micelles, within 6 h, 37° C.) was 30.6%, the drug release ([14]; from PEO-b-PCL formulations, within 24 h) was 84.2% and the drug released ([14]; from PEO-b-PCL micelles, within 6 h, 37° C.) was 66.5%. The cumulative release ([14]; from respective optimum micelles (PEO-b-PCCL for A12B4C50, PEO-b-PBCL for A83B4C63), within 24 h) was 48% and 48.2%, the “usable concentration in clonogenic survival assays (not affecting cell growth)” value (HCT116 cells [10]) was less than 20 µM and the “level at which encapsulated inhibitor sensitized HCT116 cells to radiation and irinotecan” value (HCT116 cells [11]) was 6 µM. The water solubility (Solubility) was “low water solubility”, the “synthetic lethality in HCT116 PTEN−/− cells” value (HCT116 PTEN−/− cells; 9-14 days treatment) was “more specifically toxic to PTEN-deficient cells than A12B4C50” and the “level at which encapsulated inhibitor induced synthetic lethality” value (HCT116 PTEN−/− cells) was 4 µM.
In the case of YHWYGYTPQNVI [GE11], the Kd (EGFR) is listed as roughly 22 nM.
